# System: male C57/BL6 mice
# Assay: Paw placement test after photothrombotic stroke in the mouse
# Format: in vivo
# Settings: mouse; five days treatment initiated 10 days after stroke; FIG. 2C
# Protocol: Animals. All experiments were carried out with the approval of the Malmo-Lund animal review board and according to the ARRIVE guidelines. The experiments were carried out on male C57/BL6 mice (8 weeks of age, Charles River Scanbur A/S Karlslunde, Denmark). Studies were subjected to randomization and carried out in a blinded fashion to the investigators who performed the surgeries and behavioral assessment.
# Materials were as in Example 1 and the administration of the drug was made as in Example 1. Also the positive allosteric modulator (PAM) for the mGlur5 receptor was SIN006 (N-Cyclobutyl-6-[2-(3-fluorophenyl)ethynyl]-3-pyridinecarboxamide hydrochloride; VU0360172).
# Induction of stroke in the mouse. Mice were subjected to unilateral photothrombotic (PT) cortical infarct in the left sensori-motor cortex. During surgery, the body temperature of the animals was kept at 37° C. using a self-regulating heating pad. Animals were anesthetized using 1.5-2.5% isoflurane (Sigma) in 100% 02. The skin above the skull was incised; a fiber optic bundle with a 2.5 mm aperture diameter was connected to a cold light source (CL 1500 ECO, Zeiss, Germany) and adjusted to the stereotaxic coordinates of the sensori-motor cortex, 0.5 mm anterior to bregma and 1.5 mm lateral to midline. One intraperitoneal (i.p.) injection of 0.25 ml Rose Bengal (10 mg/ml in 0.9% saline; Sigma-Aldrich, Germany) was given 5 min before the light was turned on for 20 minutes. Care was taken not to exceed 38° C. at the skull surface, underneath the fiber optic bundle. Post surgery, animals were allowed to awake from anesthesia while on a heating pad and returned to the cages with free access to food pellets and water.
# Enriched housing. It is well known that housing of rodents in an enriched environment stimulates the various sensori-motor systems of the brain enhancing recovery after experimental stroke. Enriched housing was accomplished by the following procedure. After selective sorting at day 2 after stroke, mice were randomly distributed into standard (STD, 17 cm×16 cm×34.5 cm) or enriched cages (EE, 30 cm×27 cm×43 cm). Multilevel-enriched cages were equipped with various colored objects such as plastic tunnels, small houses, slides and rodent running wheels; the disposition of the objects was changed every second day. Mice were housed in either standard (2 animals/cage) or enriched cages (6-8 animals/cage) for 12 days. Animals in standard cages were handled similarly except for the housing condition.
# Paw placement test. The mouse was held along its rostro-caudal extension on the edge of a bench and both the unilateral front and hind paws were gently pushed along it. The placement of each paw was recorded when the mouse was moved towards the edge. Sensori-motor dysfunction was assessed by using a score of 1, 0.5, and 0: (1)—the paw is immediately placed on the table surface; (0.5)—the limb is extended, but with some movements and attempts to place the paw on the surface of the table; (0)—the paw is totally immobilized, hanging down, with no movement. In order to obtain groups with a similar functional deficit prior to treatment of the animals with drugs or vehicle, selective sorting was performed on day 2 after experimental stroke, a time point of recovery when the infarct development had subsided.
# Administration of the compounds. The compounds were administrated orally (p.o.) by catheters placed in the stomach. The amount of solutions were 0.2 ml/rat and 0.1 ml/mice.
# Induction of stroke was as made as in Example 1 for rats and as in Example 2 in mice. Assessment of neurological function was performed as in Example 1 for rats and as in Example 2 for mice. The animals were perfused and immunostained as in Example 1, and the infarct size was assessed as in Example 1.
smiles,measurement,value
"Cc1nc(C#Cc2cccnc2)cs1 [SIN007, 3-[(2methyl-1,3-thiazol-4-yl)ethynyl]pyridine]","recovery of function, delayed treatment",the recovery of function is the same as when treatment is initiated at 2 days after stroke

# — patent publication US11033545B2, “Negative allosteric modulators of MGLUR5 for use in the treatment of mature brain damages” (Sinntaxis AB, priority 2016, dated 2021)
